For 13 compounds, TGI and GI50 results are on record in PubChem BioAssay (NCI).

The structures appear in SMILES notation. “And” between values parts separate entries of the source, which are not always exact repeats. Equal values may be shown once.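 Step 1: Grow cells in 96-well plates. Step 2: Expose to compound for 48 hours at 5 concentrations. Step 3: Interpolate endpoints linearly; if unreached, use highest concentration. GI50 is the concentration that inhibits growth by half. TGI denotes the concentration required for complete inhibition of growth.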 Some results are limits rather than exact numbers.

Test in all cases: NCI anticancer screen, dose series, 48 h
For test [1], the system named is SW-620 colon.
Test [2] relates to SF-295 CNS.
Test [3] deals with MOLT-4 leukemia.
In test [4] the test system is COLO 205 colon.
Test [5] relates to HOP-62 NSCLC.
Test [6] concerns RXF 393 renal.
Test [7] relates to SF-268 CNS.
The subject of test [8] is M14 melanoma.
For test [9], the system named is OVCAR-3 ovarian.

Consider `O=C(NOC(=O)c1ccc([N+](=O)[O-])cc1)c1ccc(Cl)cc1`, for which the TGI in test [1], in test [2], in test [3], in [4], in test [5] and in [6] was > 100 µM each time. Further, the TGI in test [7] and in [8] was > 100 µM in each case.

`Nc1nc(Cl)cc(NCCCCCCNc2cc(Cl)nc(N)n2)n1`: the TGI in test [1], in [9], in test [2], in test [3], in test [4] and in test [5] was > 100 µM each time. The TGI in test [6] and in [8] was > 100 µM throughout.

In the case of `Cc1cc(N(CCC#N)CCC#N)ccc1/C=C/C(=O)Nc1ccccc1Cl`, the TGI in test [1], in test [9], in test [2], in test [3], in test [4] and in test [5] was > 100 µM each time. For the same compound, the TGI in [7] and in test [8] was > 100 µM each time.

On to `CCCCOP1(=O)C=CC(Cl)=C(C)C1` (configuration not stated), for which the TGI is 42.7 µM in test [1]; 77.7 µM in [9]; 39.6 µM in [2]; 25.3 µM in test [3]; 97.7 µM in test [4]; > 100 µM in test [5]. In addition, the TGI in test [7] is 89.2 µM; in [8], > 100 µM.

Regarding `C/C(=N\O)[C@H]1CC[C@@]2(C)[C@@H]3CC[C@H]4C(C)(C)/C(=N/O)CC[C@@]45CC35CC[C@]12C` (some centres not stated), the GI50 in test [1] is 8.68 µM; in [3], 3.26 µM; in test [4], 5.75 µM; in test [5], 4.3 µM; in test [6], 4.02 µM; in test [7], 4.16 µM. In addition, the GI50 in test [8] is 3.2 µM. The TGI in test [1] was > 16.7 µM; in [3], > 16.7 µM; in test [4] it was > 16.7 µM; in test [5] it was > 16.7 µM; in [6] it was 9.67 µM; in [7] it was 14.1 µM. Moreover, in test [8], the TGI came out at 8.11 µM.

For the compound `C=C(C[N+](C)(C)C)N/N=C/c1oc(-c2ccc(OC)c(OC)c2)c(-c2ccc(OC)c(OC)c2)c1[N+](=O)[O-]`, the TGI is 34.5 µM in test [1]; 71.6 µM in test [9]; 39.6 µM in test [2]; 83.6 µM in test [3]; 33.6 µM in test [4]; 30.1 µM in [6]. The TGI came to 38.7 µM in [7] and 48.2 µM in [8].

Take `COc1cc(-c2nn3c(=O)n(-c4ccc(Cl)cc4)c(=O)nc3s2)cc(OC)c1OC`: the GI50 in test [1] was > 50 µM; in test [2], 18.2 µM; in test [3] it was 30.7 µM; in test [4] it was > 50 µM; in [6] it was 14.7 µM; in [7], 33.1 µM. Also, in test [8], the GI50 is 28 µM. Also, the TGI in test [1] was > 100 µM; in test [9] it was > 100 µM; in test [2], > 50 µM and 90.2 µM; in [3] it was 50 µM and > 100 µM; in test [4] it was > 100 µM; in test [5], > 71.9 µM. Further, the TGI in test [6] was 40.7 µM and 21.6 µM; in test [7] it was > 100 µM; in [8] it was 50 µM and > 100 µM.

As for `COc1ccc(C2NC(=S)NC3=C2COc2ccc(F)cc23)cc1OC` (configuration not stated), the GI50 was 24.5 µM in test [1]; 11 µM in test [9]; 20.1 µM in [2]; 54.6 µM in test [3]; 36.2 µM in [4]; 26.8 µM in test [5]. The GI50 is 18.9 µM in [6], 19 µM in test [7] and 33.9 µM in test [8]. The TGI in [1] is > 100 µM; in [9] it was 49.9 µM; in test [2], 70.3 µM; in test [3], > 100 µM; in test [4] it was > 100 µM; in test [5] it was > 100 µM. Moreover, the TGI in test [6] was 60.8 µM; in test [7], > 100 µM; in test [8], > 100 µM.

As for `O=C1[C@H]2ON(c3ccccc3)C(c3cccc([N+](=O)[O-])c3)[C@H]2C(=O)N1c1ccc(Cc2ccc(N3C(=O)[C@@H]4ON(c5ccccc5)C(c5cccc([N+](=O)[O-])c5)[C@@H]4C3=O)cc2)cc1` (some centres not stated), the TGI in test [1], in test [9], in test [2], in test [3], in test [4] and in [5] was > 100 µM in each case. For the same compound, the values for the TGI in test [6], in test [7] and in test [8] were > 100 µM, > 100 µM and 60.8 µM, respectively.

With `O=C(O)C(CS)N=Cc1nc(-c2ccccc2)oc1O` (configuration not stated), the TGI in [1], in test [9], in test [2], in test [3], in [4] and in test [5] was > 100 µM throughout. In addition, the TGI in [6], in [7] and in test [8] was > 100 µM each time.

For the compound `C=CCN(N=O)C(=O)ON1C(=O)CCC1=O`, the TGI in test [1], in test [9], in test [2], in test [3], in [4] and in test [5] was > 100 µM throughout. For the same compound, the TGI in test [6], in test [7] and in test [8] was > 100 µM each time.

On to `COC(=O)C1=C(C(=O)OC)N(C(C)C)[C@H]2C(C(=O)OC)=C(C(=O)OC)N(C(C)C)[C@@H]12`, for which the TGI in test [1], in [9], in test [2], in test [3], in test [4] and in test [5] was > 100 µM throughout. The TGI in [6], in test [7] and in test [8] was > 100 µM in each case.

For `CCCC/C=C1\CCC(CN2CCCC2)C1=O` (configuration not stated), the TGI came out at 4.9 µM in test [1]; 31.5 µM in test [9]; 36.4 µM in test [2]; 36.2 µM in test [3]; 26.1 µM in [4]; 33.3 µM in test [5]. For the same compound, the results for the TGI in test [7] and in test [8] were 29.9 µM and 23.4 µM, respectively.
